Measured values published in patent US6365598B1, “Pyrroloquinolines for treatment of obesity” (Vernalis Research Limited, priority 1998, dated 2002).
Structures can show the parent of a compound that is named as a salt. Blank lines part the entries; values can stand above or below the compound they belong to.

Tests used:
5-HT2A receptors [1] = target: T1, 5-HT2A receptors (Homo sapiens, UniProt P28223); experiment: Binding to 5-HT2A receptor, [125I]-DOI, CHO cell line; set-up: expressed in transfected cells; host or cells: CHO cell line; conditions: read-out: Ki (2A)
Procedure: (§1) 1. Binding to Serotonin Receptors
(§2) The binding of compounds of formula (I) to serotonin receptors was determined in vitro by standard methods. The preparations were investigated in accordance with the assays given hereinafter.
Method (c): For the binding to the 5-HT2A receptor the 5-HT2A receptors were radiolabeled with [^125I]-DOI. The affinity of the compounds for 5-HT2A receptors in a CHO cell line was determined according to the procedure of D. J. McKenna and S. J. Peroutka, J. Neurosci., 1989, 9, 3482-90.

5-HT2c receptors [2] = target: T2, 5-HT2c receptors (Homo sapiens, UniProt P28335); experiment: Binding to 5-HT2C receptor, [3H]-5-HT, CHO cell line; set-up: expressed in transfected cells; host or cells: CHO cell line; conditions: read-out: Ki (2C)
T2 sequence (P28335 33-458): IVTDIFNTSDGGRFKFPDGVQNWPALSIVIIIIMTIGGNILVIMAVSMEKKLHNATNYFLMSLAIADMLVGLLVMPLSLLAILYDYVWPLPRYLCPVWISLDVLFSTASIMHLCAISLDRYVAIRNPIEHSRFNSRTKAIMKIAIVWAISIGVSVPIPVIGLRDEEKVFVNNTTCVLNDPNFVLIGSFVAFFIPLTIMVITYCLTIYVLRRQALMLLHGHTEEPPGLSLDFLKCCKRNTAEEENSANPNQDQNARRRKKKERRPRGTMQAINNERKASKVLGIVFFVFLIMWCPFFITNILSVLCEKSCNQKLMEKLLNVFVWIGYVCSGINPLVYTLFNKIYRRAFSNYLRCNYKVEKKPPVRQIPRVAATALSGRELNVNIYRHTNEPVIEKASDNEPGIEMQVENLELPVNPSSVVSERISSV
Procedure: as §1, §2
Method (a): For the binding to the 5-HT2c, receptor the 5-HT2c receptors were radiolabeled with [^3H]-5-HT. The affinity of the compounds for 5-HT2c receptors in a CHO cell line was determined according to the procedure of D. Hoyer, G. Engel and H. O. Kalkman, European J. Pharmacol., 1985, 118,13-23.

human 5-HT2B receptors = target: T3, human 5-HT2B receptors (Homo sapiens, UniProt P41595); experiment: Binding to 5-HT2B receptor, [3H]-5-HT, CHO cell line; conditions: read-out: Ki (2B)
T3 construct: expressed in transfected cells; host or cells: CHO cell line
Procedure: as §1, §2
Method (b): For the binding to the 5-HT2B receptor the 5-HT2B receptors were radiolabeled with [^3H]-5-HT. The affinity of the compounds for human 5-HT2B receptors in a CHO cell line was determined according to the procedure of K. Schmuck, C. Ullmer, P. Engels and H. Lubbert, FEBS Lett., 1994, 342, 85-90.

5-HT2A receptors [3] = target: T1, 5-HT2A receptors; experiment: Functional activity, FLIPR calcium assay, CHO cells expressing human 5-HT2A; format: cell-based; set-up: expressed in transfected cells; host or cells: CHO cells; conditions: for EC50: FLIPR, CHO cells, Fluo-3-AM, read-out: h5-HT2A EC50; for h5-HT2A Relative Efficacy (%): maximum fluorescent signal relative to 10 μM 5-HT (defined as 100%)
Procedure: (§3) The functional activity of compounds of formula (I) was assayed using a Fluorimetric Imaging Plate reader (FLIPR). CHO cells expressing the human 5-HT2C or human 5-HT2A receptors were counted and plated into standard 96 well microtitre plates on the day before testing to give a confluent monolayer. The cells were then dye loaded with the calcium sensitive dye, Fluo-3-AM. Unincorporated dye was removed using an automated cell washer to leave a total volume of 100 μL/well of assay buffer (Hanks balanced salt solution containing 20 mM Hepes and 2.5 mM probenecid). The drug (dissolved in 50 μL of the assay buffer) was added at a rate of 70 μL/sec to each well of the FLIPR 96 well plate during fluorescence measurements. The measurements were taken at 1 sec intervals and the maximum fluorescent signal was measured (approx 10-15 secs after drug addition) and compared with the response produced by 10 μM 5-HT (defined as 100%) to which it was expressed as a percentage response (relative efficacy). Dose response curves were constructed using Graphpad Prism (Graph Software Inc.).

5-HT2c receptors [4] = target: T2, 5-HT2c receptors; experiment: Functional activity, FLIPR calcium assay, CHO cells expressing human 5-HT2C; format: cell-based; set-up: expressed in transfected cells; host or cells: CHO cells; conditions: for EC50: FLIPR, CHO cells, Fluo-3-AM, read-out: h5-HT2C EC50; for h5-HT2C Relative Efficacy (%): maximum fluorescent signal relative to 10 μM 5-HT (defined as 100%)
Procedure: as §3

food deprived animals = experiment: Regulation of feeding behaviour: food consumption in food deprived animals; format: in vivo; conditions: 2 hours after a dose of 10 mg/kg s.c.
Procedure: 4. Regulation of Feeding Behaviour
The in vivo activity of compounds of formula (I) on feeding behaviour was assayed by measuring food consumption in food deprived animals.
Test compounds were assessed following acute administration. Each study utilised a between-subjects design (typically n=8) and compared the effects of doses of the test agent to those of vehicle and a positive control.
The anorectic drug d-fenfluramine normally serves as a positive control. The route of drug administration, drug volume and injection-test-interval are dependent upon the compounds used. A palatable wet mash, made by adding powdered lab chow and water in a ratio of 1:2 and mixing to a smooth consistency, was presented in 120 ML glass jars for 60 minutes each day. Intake was measured by weighing before and after each session. Care was taken to collect all spillage. Animals were allowed to habituate to the wet mash meal for 10 days. After drug administration, animals were allowed to consume the wet mash. Food consumption was assayed at pre-determined time points (typically 1, 2 and 4 hours after administration). Food intake data were subjected to one-way analysis of variance (ANOVA) with drug as a between-subjects factor. […] All statistical analyses were performed using Statistica Software, Version 5.0 (Statsoft Inc.) and Microsoft Excel 7.0 (Microsoft Corp.).

T3 sequence (P41595 whole entry): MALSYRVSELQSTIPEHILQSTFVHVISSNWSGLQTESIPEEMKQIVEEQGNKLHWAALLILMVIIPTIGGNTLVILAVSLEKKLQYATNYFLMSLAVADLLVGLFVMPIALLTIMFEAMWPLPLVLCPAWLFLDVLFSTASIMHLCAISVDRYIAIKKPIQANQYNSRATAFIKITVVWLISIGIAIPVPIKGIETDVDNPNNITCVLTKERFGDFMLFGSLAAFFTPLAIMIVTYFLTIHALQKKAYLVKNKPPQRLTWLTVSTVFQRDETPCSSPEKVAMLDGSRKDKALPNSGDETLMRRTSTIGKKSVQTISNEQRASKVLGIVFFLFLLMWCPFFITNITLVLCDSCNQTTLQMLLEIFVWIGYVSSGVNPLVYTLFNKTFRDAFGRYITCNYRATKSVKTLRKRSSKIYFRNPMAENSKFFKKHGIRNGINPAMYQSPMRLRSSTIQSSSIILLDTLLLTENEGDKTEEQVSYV
T1 sequence (P28223 whole entry): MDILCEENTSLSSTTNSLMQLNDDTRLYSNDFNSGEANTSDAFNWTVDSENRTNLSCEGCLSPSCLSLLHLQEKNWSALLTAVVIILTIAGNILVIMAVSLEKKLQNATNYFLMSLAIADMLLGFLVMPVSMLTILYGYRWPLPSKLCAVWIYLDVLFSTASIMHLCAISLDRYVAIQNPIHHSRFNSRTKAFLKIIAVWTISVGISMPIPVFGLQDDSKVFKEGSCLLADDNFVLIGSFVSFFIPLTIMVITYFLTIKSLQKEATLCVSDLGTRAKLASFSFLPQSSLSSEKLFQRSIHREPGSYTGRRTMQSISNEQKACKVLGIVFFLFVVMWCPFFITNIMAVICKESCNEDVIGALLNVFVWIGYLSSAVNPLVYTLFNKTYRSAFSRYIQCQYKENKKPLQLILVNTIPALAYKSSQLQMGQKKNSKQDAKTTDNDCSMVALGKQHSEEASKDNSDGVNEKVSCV

melting point: 180 to 182 °C
SMILES: COc1nccc2c1ccc1ccn(C[C@H](C)N)c12 (as salt: fumarate)

SMILES: C[C@H](N)Cn1ccc2ccc3cnccc3c21 (as salt: fumarate) [Example 4, (S)-1-(1H-Pyrrolo[2,3-f]isoquinolin-1-yl)-2-propylamine fumarate]
melting point: 165 °C

SMILES: C[C@H](N)Cn1ccc2cc(Cl)c3ncccc3c21 (as salt: fumarate) [Example 5, (S)-1-(5-Chloro-1H-pyrrolo[2,3-f]-quinolin-1-yl)-2-propylamine fumarate]
melting point: 228 to 229 °C

SMILES: C[C@H](N)Cn1ccc2ccc3ccncc3c21 (as salt: fumarate) [Example 7, (S)-1-(1H-Pyrrolo[3,2-h]isoquinolin-1-yl)-2-propylamine fumarate]
melting point: 153 to 154 °C

SMILES: C[C@H](N)Cn1ccc2ccc3cccnc3c21 (as salt: fumarate) [Example 8, (S)-1-(1H-Pyrrolo[3,2-h]quinolin-1-yl)-2-propylamine hemifumarate]
melting point: 212 to 214 °C

SMILES: C[C@H](N)Cn1ccc2ccc3ncccc3c21 (as salt: hydrochloride) [Example 1, (S)-1-(1H-Pyrrolo[2,3-f]quinolin-1-yl)-2-propylamine]
melting point: 222 to 224 °C

SMILES: C[C@@H](N)Cn1ccc2ccc3ncccc3c21 (as salt: hydrochloride) [Example 2, (R)-1-(1H-Pyrrolo[2,3-f]quinolin-1-yl)-2-propylamine]
melting point: 223 to 225 °C

SMILES: CC(N)Cn1ccc2ccc3ncccc3c21 (racemic) [Example 3, (RS)-1-(1H-Pyrrolo[2,3-f]quinolin-1-yl)-2-propylamine hydrochloride]
Ki (5-HT2A receptors [1]): 40 nM
Ki (5-HT2c receptors [2]): 24 nM
Ki (human 5-HT2B receptors): 9 nM

SMILES: C[C@H](N)Cn1ccc2ccc3ncccc3c21 [Example 1, (S)-1-(1H-Pyrrolo[2,3-f]quinolin-1-yl)-2-propylamine]
EC50 (5-HT2A receptors [3]): 360 nM
h5-HT2A Relative Efficacy (%) (5-HT2A receptors [3]): 100%
Ki (5-HT2A receptors [1]): 45 nM
EC50 (5-HT2c receptors [4]): 12 nM
h5-HT2C Relative Efficacy (%) (5-HT2c receptors [4]): 93%
Ki (5-HT2c receptors [2]): 9 nM
Ki (human 5-HT2B receptors): 12 nM
hypophagia (food consumption) (food deprived animals): significant hypophagia

SMILES: C[C@@H](N)Cn1ccc2ccc3ncccc3c21 [Example 2, (R)-1-(1H-Pyrrolo[2,3-f]quinolin-1-yl)-2-propylamine]
EC50 (5-HT2A receptors [3]): 87 nM
h5-HT2A Relative Efficacy (%) (5-HT2A receptors [3]): 96%
Ki (5-HT2A receptors [1]): 37 nM
EC50 (5-HT2c receptors [4]): 7 nM
h5-HT2C Relative Efficacy (%) (5-HT2c receptors [4]): 85%
Ki (5-HT2c receptors [2]): 22 nM
Ki (human 5-HT2B receptors): 5 nM
hypophagia (food consumption) (food deprived animals): significant hypophagia

SMILES: C[C@H](N)Cn1ccc2ccc3cnccc3c21 [Example 4, (S)-1-(1H-Pyrrolo[2,3-f]isoquinolin-1-yl)-2-propylamine fumarate]
EC50 (5-HT2A receptors [3]): 870 nM
h5-HT2A Relative Efficacy (%) (5-HT2A receptors [3]): 54%
Ki (5-HT2A receptors [1]): 173 nM
EC50 (5-HT2c receptors [4]): 142 nM
h5-HT2C Relative Efficacy (%) (5-HT2c receptors [4]): 89%
Ki (5-HT2c receptors [2]): 156 nM
Ki (human 5-HT2B receptors): 84 nM

SMILES: C[C@H](N)Cn1ccc2cc(Cl)c3ncccc3c21 [Example 5, (S)-1-(5-Chloro-1H-pyrrolo[2,3-f]-quinolin-1-yl)-2-propylamine fumarate]
EC50 (5-HT2A receptors [3]): 52 nM
h5-HT2A Relative Efficacy (%) (5-HT2A receptors [3]): 80%
EC50 (5-HT2c receptors [4]): 5 nM
h5-HT2C Relative Efficacy (%) (5-HT2c receptors [4]): 86%

SMILES: C[C@H](N)Cn1ccc2ccc3ccncc3c21 [Example 7, (S)-1-(1H-Pyrrolo[3,2-h]isoquinolin-1-yl)-2-propylamine fumarate]
EC50 (5-HT2A receptors [3]): 636 nM
h5-HT2A Relative Efficacy (%) (5-HT2A receptors [3]): 61%
EC50 (5-HT2c receptors [4]): 36 nM
h5-HT2C Relative Efficacy (%) (5-HT2c receptors [4]): 83%

SMILES: C[C@H](N)Cn1ccc2ccc3cccnc3c21 [Example 8, (S)-1-(1H-Pyrrolo[3,2-h]quinolin-1-yl)-2-propylamine hemifumarate]
EC50 (5-HT2A receptors [3]): 1070 nM
h5-HT2A Relative Efficacy (%) (5-HT2A receptors [3]): 31%
Ki (5-HT2A receptors [1]): 90 nM
EC50 (5-HT2c receptors [4]): 99 nM
h5-HT2C Relative Efficacy (%) (5-HT2c receptors [4]): 24%
Ki (5-HT2c receptors [2]): 45 nM
Ki (human 5-HT2B receptors): 88 nM

SMILES: C[C@@H](Cn1ccc2ccc3ncccc3c21)NCc1ccc2c(c1)OCO2 [Example 9, (S)-[1-(1H-Pyrrolo[2,3-f]quinolin-1-yl)-2-propyl]-(3,4-methylenedioxybenzyl)amine bis-fumarate]
EC50 (5-HT2A receptors [3]): 1300 nM
h5-HT2A Relative Efficacy (%) (5-HT2A receptors [3]): 65%
EC50 (5-HT2c receptors [4]): 85 nM
h5-HT2C Relative Efficacy (%) (5-HT2c receptors [4]): 90%
